Source: a compilation of properties of binary mixtures (doi:10.1016/j.molliq.2022.119758)

Experiment: xn = mol fraction of the nth substance listed
Conditions: 101 kPa

O=C1CCCO1 + CCC[N+]1(C)CCCC1.O=S(=O)([N-]S(=O)(=O)C(F)(F)F)C(F)(F)F
x2 = 0
Conditions	viscosity [mPa·s]
278.15 K	2.56
298.15 K	1.859
308.15 K	1.641
328.15 K	1.242
338.15 K	1.106
358.15 K	0.894

CCC[N+]1(C)CCCC1.O=S(=O)([N-]S(=O)(=O)C(F)(F)F)C(F)(F)F + O=C1CCCO1
viscosity [mPa·s]
Conditions	278.15 K	288.15 K	298.15 K	308.15 K	318.15 K	328.15 K	338.15 K	348.15 K	358.15 K
x1 = 0.0657	–	3.14	2.65	2.296	1.951	1.694	–	1.328	1.191
x1 = 0.1741	6.97	–	4.45	3.67	3.08	–	–	–	–
x1 = 0.3874	16.24	11.87	9.04	7.09	5.71	4.7	3.95	3.37	2.92
x1 = 1	–	96.2	60.6	40.8	28.9	21.3	16.29	12.82	–
